Entries after “also recorded” stand apart in the source; their conditions may differ. Where two headings read alike, the source gives them in different places. Each block holds one molecule with its values, some of them ahead of it.
Experiments:
[1] = tested on: L-aminoacylase S1; experiment: Substrate profile of L-aminoacylase S1; format: biochemical, Streptomyces hachijoensis; conditions: for Relative activity (%): compound used as substrate, L-N-acetyl-methionine evaluated to be 100
Protocol: (§1) The enzymatic activity was measured by using N-acyl derivatives of various amino acids as the substrate.

[2] = tested on: L-aminoacylase S2; experiment: Substrate profile of L-aminoacylase S2; format: biochemical, Streptoverticillium rimofaciens; conditions: for Relative activity (%): compound used as substrate, L-N-acetyl-methionine evaluated to be 100
Protocol: as §1

[3] = tested on: L-aminoacylase S1; experiment: Influence of metal ions on L-aminoacylase S1; format: biochemical, Streptomyces hachijoensis; conditions: for Relative activity (%): 1 mM metal salt, 37° C. one hour, substrate N-Ac-DB-DOPS, no metal added = 100%
Protocol: (§2) A potassium phosphate buffer solution (pH 7.0) of the enzyme of the present invention was treated for one hour at various temperatures, and the remaining activity was measured. As the substrate, L-threo-N-acetyl-3-(3,4-dibenzyloxyphenyl)serine (hereinafter referred to simply as N-Ac-DB-DOPS) was employed, and the reaction was conducted at 37° C. for one hour, whereupon freed L-threo-3-(3,4-dibenzyloxyphenyl)serine (hereinafter referred to simply as DB-DOPS) was measured by a ninhydrin method to determine the activity.
L-aminoacylase S1 of the present invention is added to a 0.1 M Veronal buffer solution containing a final concentration of 1 mM of various metal salts, and left to stand at 37° C. for one hour. Then, it was reacted with N-Ac-DB-DOPS as the substrate at 37° C. for 1 hour, whereby the relative activity was measured by the above-mentioned method. The one where no metal was added, was evaluated to be 100%.

[4] = tested on: L-aminoacylase S2; experiment: Influence of metal ions on L-aminoacylase S2; format: biochemical, Streptoverticillium rimofaciens; conditions: for Relative activity (%): 1 mM metal salt, 37° C. 1 hour, substrate N-Ac-DB-DOPS, no metal salt added = 100%
Protocol: (§3) As the substrate, N-Ac-DB-DOPS was used, and the reaction was conducted at 37° C. for one hour, whereby freed DB-DOPS was measured by a ninhydrin method to determine the enzymatic activity.
L-aminoacylase S2 of the present invention was added to 0.1 M Veronal buffer solution containing as the final concentration 1 mM of various metal salts, and the reaction was conducted at 37° C. for 1 hour. Then, it was reacted with N-Ac-DB-DOPS as the substrate at 37° C. for one hour, whereupon the relative activity was measured by the above-mentioned method. The activity of the one where no metal salt was added, was evaluated to be 100%.

[5] = tested on: L-aminoacylase S2; experiment: Influence of inhibitors on L-aminoacylase S2; format: biochemical, Streptoverticillium rimofaciens
Protocol: as §3, with “activity. As shown in the Figure, 20% is deactivated by the treatment at 60° C., and at least 70% is deactivated at 70° C. However, the enzyme is certainly stable at 50° C.” for “activity.”
The enzyme of the present invention was left to stand for one hour at 37° C. together with various inhibitors, and then reacted at 37° C. for one hour with N-Ac-DB-DOPS as the substrate, whereupon the remaining activity was measured by the above-mentioned method.

[6] = tested on: L-aminoacylase S1; experiment: Influence of inhibitors on L-aminoacylase S1; format: biochemical, Streptomyces hachijoensis
Protocol: as §2, with “activity. As shown, 95% or more is deactivated by the treatment at pH 7.0 at 60° C., but the enzyme is certainly stable at a temperature of 50° C. or lower.” for “activity.”
The enzyme of the present invention is left to stand at 37° C. for one hour together with various inhibitors, and then reacted with N-Ac-DB-DOPS as the substrate at 37° C. for one hour, whereby the remaining activity was measured by the above-mentioned method.

[7] = Comparison of substrate profiles of L-aminoacylases, substrate L-N-acetyl-methionine; format: biochemical; design: key: +: active; -: inactive; conditions: Table 7
Protocol: (§4) The substrate profiles of L-aminoacylase S1 and L-aminoacylase S2 of the present invention and conventional L-aminoacylases were measured.
(§5) L-aminoacylase S1 and L-aminoacylase S2 of the present invention was compared with commercially available L-aminoacylases in their activity by using N-acetyl derivatives of D- or L-methionine and L-threo-3-(3,4-dibenzyloxyphenyl) serine as substrates.

[8] = Comparison of substrate profiles of L-aminoacylases, substrate D-N-acetyl-methionine; format: biochemical; design: key: +: active; -: inactive; conditions: Table 7
Protocol: as §4, §5

[9] = Comparison of substrate profiles of L-aminoacylases, substrate L-threo-N-acetyl-3-(3,4-dibenzyloxyphenyl)serine; format: biochemical; design: key: +: active; -: inactive; conditions: Table 7
Protocol: as §4, §5

[10] = L-aminoacylase S2, inhibitor 1 mM, 37° C. one hour, substrate N-Ac-DB-DOPS
[11] = L-aminoacylase S1, inhibitor 1 mM, 37° C. one hour, substrate N-Ac-DB-DOPS

Action of the enzyme on the substrate (in words) [1]: does not act | Relative activity (%) [1]: 0% | Action of the enzyme on the substrate (in words) [2]: does not act | Relative activity (%) [2]: 0%
Molecule: CC(=O)NC(C)c1ccccc1 (racemic) [DL-N--acetyl-α-methylbenzylamine, DL-N-acetyl-α-methylbenzylamine]

Influence of metal ions on activity (in words) [3]: strongly inhibited | Relative activity (%) [3]: 3% | Relative activity (%) [4]: 0%
Molecule: [Ag+] [Ag^+]
Influence of metal ions on activity (in words) [4]: prohibited; also recorded: strongly inhibited

Relative activity (%) [3]: 72% | Relative activity (%) [4]: 98%
Molecule: [Ca+2] [Ca^++]

Influence of metal ions on activity (in words) [3]: activated | Relative activity (%) [3]: 162% | Relative activity (%) [4]: 38%
Molecule: [Co+2] [Co^++]
Influence of metal ions on activity (in words) [4]: prohibited; also recorded: strongly inhibited

Influence of metal ions on activity (in words) [3]: strongly inhibited | Relative activity (%) [3]: 14% | Relative activity (%) [4]: 16%
Molecule: [Cu+2] [Cu^++]
Influence of metal ions on activity (in words) [4]: prohibited; also recorded: strongly inhibited

Relative activity (%) [1]: 0% | Relative activity (%) [2]: 0%
Molecule: CSCC[C@@H](NC(C)=O)C(=O)O [D-N--acetyl-methionine]

Relative activity (%) [1]: 0% | Relative activity (%) [2]: 0%
Molecule: CC(=O)N[C@H](Cc1c[nH]c2ccccc12)C(=O)O [D-N--acetyl-tryptophan]

Influence of metal ions on activity (in words) [3]: strongly inhibited | Relative activity (%) [3]: 17% | Relative activity (%) [4]: 18%
Molecule: [Fe+2] [Fe^++]
Influence of metal ions on activity (in words) [4]: prohibited; also recorded: strongly inhibited

Molecule: [Hg+2] [Hg^++]
Influence of metal ions on activity (in words) [3]: strongly inhibited | Relative activity (%) [3]: 2% | Influence of metal ions on activity (in words) [4]: prohibited; also recorded: strongly inhibited | Relative activity (%) [4]: 15%

Relative activity (%) [1]: 41% | Relative activity (%) [2]: 65%
Molecule: CC(=O)N[C@H](C(=O)O)c1ccc(CO)c(O)c1 [L-N--acetyl-2-(4-hydroxymethyl-3-hydroxyphenyl)glycine]

Relative activity (%) [1]: 7% | Relative activity (%) [2]: 8%
Molecule: CC(=O)N[C@@H](C)C(=O)O [L-N--acetyl-alanine]

Relative activity (%) [1]: 85% | Relative activity (%) [2]: 61%
Molecule: CC(=O)N[C@@H](CCCNC(=N)N)C(=O)O [L-N--acetyl-arginine]

Relative activity (%) [1]: 19% | Relative activity (%) [2]: 18%
Molecule: CC(=O)N[C@@H](CCC(=O)O)C(=O)O [L-N--acetyl-glutamic acid]

Relative activity (%) [1]: 41% | Relative activity (%) [2]: 36%
Molecule: CC(=O)N[C@@H](Cc1c[nH]cn1)C(=O)O [L-N--acetyl-histidine]

Relative activity (%) [1]: 76% | Relative activity (%) [2]: 71%
Molecule: CC(=O)N[C@@H](CC(C)C)C(=O)O [L-N--acetyl-leucine]

Relative activity (%) [1]: 100% | Relative activity (%) [2]: 100%
Molecule: CSCC[C@H](NC(C)=O)C(=O)O [L-N--acetyl-methionine, L-N-acetyl-methionine]

Relative activity (%) [1]: 197% | Relative activity (%) [2]: 286%
Molecule: CC(=O)N[C@@H](Cc1ccccc1)C(=O)O [L-N--acetyl-phenylalanine]

Relative activity (%) [1]: 80% | Relative activity (%) [2]: 98%
Molecule: CC(=O)N[C@@H](Cc1c[nH]c2ccccc12)C(=O)O [L-N--acetyl-tryptophan]

Relative activity (%) [2]: 137%
Molecule: CC(=O)N[C@@H](Cc1ccc(O)cc1)C(=O)O [L-N--acetyl-tyrosine]

Relative activity (%) [1]: 42% | Relative activity (%) [2]: 35%
Molecule: CC(=O)N[C@H](C(=O)O)C(C)C [L-N--acetyl-valine]

Relative activity (%) [2]: 10%
Molecule: CSCC[C@H](NC(=O)c1ccccc1)C(=O)O [L-N--benzoyl-methionine]

Relative activity (%) [1]: 4% | Relative activity (%) [2]: 5%
Molecule: CSCC[C@H](NC=O)C(=O)O [L-N--formyl-methionine]

Influence of inhibitors on activity (in words) ([5]; L-aminoacylase S2): strongly inhibited | Remaining activity (%) [5, 10]: 11% | Influence of inhibitors on activity (in words) ([5]; L-aminoacylase S2, listed as cysteine): inhibited
Molecule: N[C@@H](CS)C(=O)O [L-cysteine]

Relative activity (%) [1]: 14% | Relative activity (%) [2]: 20%
Molecule: CC(=O)N[C@H](C(=O)O)[C@H](O)c1ccc(OCc2ccccc2)c(OCc2ccccc2)c1 [L-threo-N-acetyl-3-(3,4-dibenzyloxyphenyl)serine]

Relative activity (%) [3]: 107% | Relative activity (%) [4]: 95%
Molecule: [Mg+2] [Mg^++]

Relative activity (%) [3]: 61% | Relative activity (%) [4]: 31%
Molecule: [Mn+2] [Mn^++]
Influence of metal ions on activity (in words) [4]: prohibited; also recorded: strongly inhibited

Molecule: O=C(O)CI [Monoiodoacetic acid]
Influence of inhibitors on activity (in words) [6]: not inhibited | Remaining activity (%) [6]: 94% | Influence of inhibitors on activity (in words) [5]: strongly inhibited | Remaining activity (%) [5]: 3%

Action of the enzyme on the substrate (in words) [1]: does not act | Relative activity (%) [1]: 0% | Action of the enzyme on the substrate (in words) [2]: does not act | Relative activity (%) [2]: 0%
Molecule: CC(=O)N[C@H]1C(O)O[C@H](CO)[C@@H](O)[C@@H]1O (stereo partly drawn) [N--acetyl-D-glucosamine, N-acetyl-D-glucosamine]

Relative activity (%) [1]: 2% | Relative activity (%) [2]: 2%
Molecule: CC(=O)NCC(=O)O [N--acetyl-glycine]

Molecule: [Ni+2] [Ni^++]
Influence of metal ions on activity (in words) [3]: strongly inhibited | Relative activity (%) [3]: 7% | Influence of metal ions on activity (in words) [4]: prohibited; also recorded: strongly inhibited | Relative activity (%) [4]: 33%

Relative activity (%) [3]: 102% | Relative activity (%) [4]: 71%
Molecule: [Zn+2] [Zn^++]

Molecule: O=C(O)c1cc[c]([Hg][Cl])cc1 [p-chloromercuribenzoate]
Influence of inhibitors on activity (in words) ([6]; L-aminoacylase S1): inhibited | Remaining activity (%) [6, 11]: 2% | Influence of inhibitors on activity (in words) ([5]; L-aminoacylase S2): strongly inhibited | Remaining activity (%) [5, 10]: 0%

Remaining activity (%) [6, 11]: 76%
Molecule: OCCS [β-mercaptoethanol]

B1: Acylase I: commercially available aminoacylase (hog kidney), manufactured by Miles Laboratory (protein, UniProt P37111 2-407, looked up)
Aminoacylase-1: ASKGREGEHPSVTLFRQYLRIRTVQPEPDYGAAVAFLEERARQLGLGCQKVEVVPGHVVTVLTWPGTNPTLSSILLNSHTDVVPVFKEHWSHDPFEGFKDADGYIYGRGAQDMKCVSIQYLEAVRRLKVEGHHFPRTIHMTFVPDEEVGGHQGMELFVKRPEFQALRAGFALDEGLASPTDAFTVFYSERSPWWLRVTSTGKPGHGSRFIEDTAAEKLHKVINSILAFREKEKQRLQSNQLKPGAVTSVNLTMLEGGVAYNVVPATMSACFDFRVAPDVDLKAFEEQLQSWCQAAGEGVTFEFVQKWMETQVTSTDDSDPWWAAFSGVFKDMKLALELEICPASTDARYIRAAGVPALGFSPMNHTPVLLHDHDERLHEAVFLRGVDIYTQLLSALASVPALPSES
Activity on substrate L-N-acetyl-methionine [7]: + | Activity on substrate D-N-acetyl-methionine [8]: - | Activity on substrate L-threo-N-acetyl-3-(3,4-dibenzyloxyphenyl)serine [9]: -
